Experimental data as given in PubChem BioAssay (NCI).
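Each compound was tested at five concentrations against cells in 96-well plates for 48 hours. TGI is the concentration that stops growth completely.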

Key:
Assay in all cases: NCI tumour cell line growth inhibition, 48 h
UO-31 renal = system: UO-31 renal
DU-145 prostate = system: DU-145 prostate
K-562 leukemia = system: K-562 leukemia
NCI/ADR-RES ovarian = system: NCI/ADR-RES ovarian
RXF 393 renal = system: RXF 393 renal
PC-3 prostate = system: PC-3 prostate
HS 578T breast = system: HS 578T breast
MOLT-4 leukemia = system: MOLT-4 leukemia
SN12C renal = system: SN12C renal
MDA-MB-231 breast = system: MDA-MB-231 breast
EKVX NSCLC = system: EKVX NSCLC
IGROV1 ovarian = system: IGROV1 ovarian
U251 CNS = system: U251 CNS
NCI-H522 lung = system: NCI-H522 lung
CCRF-CEM leukemia = system: CCRF-CEM leukemia
KM12 colon = system: KM12 colon
RPMI-8226 leukemia = system: RPMI-8226 leukemia
MCF7 breast = system: MCF7 breast
SW-620 colon = system: SW-620 colon
SF-295 CNS = system: SF-295 CNS

Row | Compound | TGI (UO-31 renal) [µM] | TGI (DU-145 prostate) [µM] | TGI (K-562 leukemia) [µM] | TGI (NCI/ADR-RES ovarian) [µM] | TGI (RXF 393 renal) [µM] | TGI (PC-3 prostate) [µM] | TGI (HS 578T breast) [µM] | TGI (MOLT-4 leukemia) [µM] | TGI (SN12C renal) [µM] | TGI (MDA-MB-231 breast) [µM] | TGI (EKVX NSCLC) [µM] | TGI (IGROV1 ovarian) [µM] | TGI (U251 CNS) [µM] | TGI (NCI-H522 lung) [µM] | TGI (CCRF-CEM leukemia) [µM] | TGI (KM12 colon) [µM] | TGI (RPMI-8226 leukemia) [µM] | TGI (MCF7 breast) [µM] | TGI (SW-620 colon) [µM] | TGI (SF-295 CNS) [µM]
1 | C=CCn1c(=O)c(C)cn(COCCO)c1=O | > 100 | > 100 | > 100 | > 100 | > 100 | > 100 | > 100 | > 100 | > 100 | > 100 | > 100 | > 100 | > 100 | > 100 | > 100 | > 100 | > 100 | > 100 | > 100 | –
2 | Fc1ccc(C(OCCN2CCN(CCCc3ccccc3)CC2)c2ccc(F)cc2)cc1 | 12 | 19.5 | 16.1 | 12.6 | 11.3 | 12 | 10.1 | 19 | 15.8 | 11.3 | 15.2 | 22.2 | 14.3 | 12.4 | > 100 | 17.1 | 8.63 | 18.9 | > 50.6 | 15.2
3 | COC(=O)[C@H]1C=NN[C@@H]1C(=O)N1[C@H]2CC3CC[C@@]2(CS1(=O)=O)C3(C)C | > 100 | > 100 | > 100 | > 100 | – | > 100 | > 100 | > 100 | > 100 | > 100 | > 100 | > 100 | > 100 | > 100 | > 100 | > 100 | > 100 | > 100 | > 100 | > 100
4 | CCOC(=O)C(C#N)(Cc1c[nH]c2ccccc12)NC(C)=O (configuration not stated) | > 100 | – | > 100 | – | > 100 | – | – | > 100 | > 100 | – | > 100 | > 100 | > 100 | > 100 | > 100 | > 100 | > 100 | – | > 100 | > 100
